Measured values reported in patent US8802664B2 (Bioproject, priority 2010, dated 2014).

What was measured:
[1] = molecular target: T1, human H4 receptor (Homo sapiens, UniProt Q9H3N8); test: [3H]Histamine binding on membranes of CHO cells stably expressing human H4 receptor
T1 construct: expressed in transfected cells
Method in brief: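 CHO-hH4 membranes 20 μg/well; buffer 50 mM Tris/HCl, 0.5 mM EDTA, pH 7.4; NSB: 10 μM JNJ 7777120 (BP1.2404); GF/B filtration (PEI-presoaked), 3 ice-cold washes; scintillation counting.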

| Ki or IC50 activity class [1] | melting point | Compound |
| --- | --- | --- |
| < 30 nM | 134 °C | CN1CCC(OC(c2ccccc2)c2nc3cc(F)ccc3[nH]2)CC1 (stereo not drawn) [Example 166, 5-fluoro-2-[(1-methylpiperidin-4-yloxy)phenylmethyl]-1H-benzimidazole] |
| < 30 nM | 133 °C | CN1CCC(OC(c2nc3ccccc3[nH]2)c2ccc(OC(F)(F)F)cc2O)CC1 (stereo not drawn) [Example 621] |
| < 30 nM | 211 °C | Cc1cc(F)c(C(OC2CCN(C)CC2)c2nc3ccccc3[nH]2)c(F)c1 (stereo not drawn) [Example 523, 2-[(2,6-difluoro-4-methylphenyl)(1-methylpiperidin-4-yloxy)methyl]-1H-benzimidazole] |
| < 300 nM | 89 °C | CN1CCC(OC(c2cccc(Br)c2)c2nc3cc(F)ccc3[nH]2)CC1 (single isomer, unassigned) [Example 567, 2-[(3-bromophenyl)(1-methylpiperidin-4-yloxy)methyl]-5-fluoro-1H-benzimidazole] |
| < 30 nM | 143 °C | CCCOc1cccc(C(NC2CCN(C)CC2)c2nc3ccccc3[nH]2)c1 (stereo not drawn) [Example 50, [(1H-benzimidazol-2-yl)(3-propoxyphenyl)methyl](1-methylpiperidin-4-yl)amine] |
| < 300 nM | 152 °C | CN1CCC(OC(c2nc3ccccc3[nH]2)c2cc3c(cc2O)CCC3)CC1 (stereo not drawn) [Example 602] |
| < 300 nM | 90 °C | CN1CCC(OC(c2cccc(-c3ccccc3F)c2)c2nc3ccccc3[nH]2)CC1 (stereo not drawn) [Example 142, 2-[(2′-fluorobiphenyl-3-yl)(1-methylpiperidin-4-yloxy)methyl]-1H-benzimidazole] |
| < 1000 nM | 70 °C | CN1CCC(OC(c2cccc(Br)c2)c2nc3cc(F)c(F)cc3[nH]2)CC1 (stereo not drawn) [Example 469, 2-[(3-bromophenyl)(1-methylpiperidin-4-yloxy)methyl]-5,6-difluoro-1H-benzimidazole] |
| < 30 nM | 146 °C | Cc1c(F)cc(C(OC2CCN(C)CC2)c2nc3ccccc3[nH]2)c(O)c1F (stereo not drawn) [Example 624] |
| < 30 nM | 85 °C | CN1CCC(OC(c2cccc(Br)c2)c2nc3ccccc3[nH]2)CC1 (single isomer, unassigned) [Example 564, 2-[(3-bromophenyl)(1-methylpiperidin-4-yloxy)methyl]-1H-benzimidazole] |
| < 300 nM | 161 °C | CN1CCC(OC(c2cccc(SCCNc3c(N)c(=O)c3=O)c2)c2nc3ccccc3[nH]2)CC1 (stereo not drawn) [Example 385, 3-amino-4-(2-{3-[(1H-benzimidazol-2-yl)(1-methylpiperidin-4-yloxy)methyl]phenylsulfanyl}ethylamino)-cyclobut-3-ene-1,2-dione] |
| < 300 nM | 120 to 122 °C | CC(O)CSc1cccc(C(OC2CCN(C)CC2)c2nc3ccccc3[nH]2)c1 (stereo not drawn) [Example 247, 1-{3-[(1H-benzimidazol-2-yl)(1-methylpiperidin-4-yloxy)methyl]phenylsulfanyl}propan-2-ol] |
| < 300 nM | 87 °C | Cc1ccc(COc2cccc(C(NC3CCN(C)CC3)c3nc4ccccc4[nH]3)c2)cc1 (stereo not drawn) [Example 130, {(1H-benzimidazol-2-yl)[3-(4-methylbenzyloxy)phenyl]methyl}(1-methylpiperidin-4-yl)amine] |
| < 1000 nM | 111 °C | Cc1cc(F)cc(C(OC2CCN(C)CC2)c2nc3ccccc3[nH]2)c1O (stereo not drawn) [Example 607] |
| < 30 nM | 213 °C | CCOc1ccc(O)c(C(OC2CCN(C)CC2)c2nc3ccccc3[nH]2)c1 (stereo not drawn) [Example 576] |
| < 300 nM | 170 °C | CN1CCC(OC(c2cccc(-c3cnc(O)nc3)c2)c2nc3ccccc3s2)CC1 (stereo not drawn) [Example 214, 5-{3-[benzothiazol-2-yl(1-methylpiperidin-4-yloxy)methyl]phenyl}pyrimidin-2-ol] |
| < 1000 nM | 135 °C | CCCOc1cccc(C(OC2CCN(C)CC2)c2nc3ccccc3[nH]2)c1 (stereo not drawn) [Example 49, 2-[(1-methylpiperidin-4-yloxy)(3-propoxyphenyl)methyl]-1H-benzimidazole] |
| < 30 nM | 126 °C | CN1CCC(OC(c2cccc(SCCCN)c2)c2nc3ccccc3[nH]2)CC1 (stereo not drawn) [Example 368, 3-{3-[(1H-benzimidazol-2-yl)(1-methylpiperidin-4-yloxy)methyl]phenylsulfanyl}propylamine] |
| < 300 nM | 75 °C | CC(C)Oc1cccc(C(NC2CCN(C)CC2)c2nc3ccccc3[nH]2)c1 (stereo not drawn) [Example 77, [(1H-benzimidazol-2-yl)(3-isopropoxyphenyl)methyl](1-methylpiperidin-4-yl)amine] |
| < 30 nM | 148 °C | Cc1ccc(C(OC2CCN(C)CC2)c2nc3ccccc3[nH]2)c(O)c1F (stereo not drawn) [Example 601, 6-[(1H-benzimidazol-2-yl)(1-methylpiperidin-4-yloxy)methyl]-2-fluoro-3-methylphenol] |
| < 30 nM | 151 °C | CN1CCC(NC(c2cccc(OCc3cccc(F)c3F)c2)c2nc3ccccc3[nH]2)CC1 (stereo not drawn) [Example 162, {(1H-benzimidazol-2-yl)[3-(2,3-difluoro-benzyloxy)phenyl]methyl}(1-methylpiperidin-4-yl)amine] |
| < 300 nM | 85 °C | CN1CCC(OC(c2cccc(C#CCCCO)c2)c2nc3ccccc3[nH]2)CC1 (stereo not drawn) [Example 192, 5-{3-[(1H-benzimidazol-2-yl)(1-methylpiperidin-4-yloxy)methyl]phenyl}pent-4-yn-1-ol] |
| < 300 nM | 77 °C | CN1CCC(OC(c2cccc(OCc3ccccn3)c2)c2nc3ccccc3[nH]2)CC1 (stereo not drawn) [Example 310, 2-{(1-methylpiperidin-4-yloxy)[3-(pyridin-2-ylmethoxy)phenyl]methyl}-1H-benzimidazole] |
| < 1000 nM | 131 °C | CN1CCC(OC(c2cccc(C#CC3CNC3)c2)c2nc3ccccc3[nH]2)CC1 (stereo not drawn) [Example 388, 2-[(3-azetidin-3-ylethynylphenyl)(1-methylpiperidin-4-yloxy)methyl]-1H-benzimidazole] |

| Compound | Ki or IC50 activity class [1] | melting point |
| --- | --- | --- |
| CN1CCC(OC(c2cccc(SCCNC(=N)NC(=O)OC(C)(C)C)c2)c2nc3ccccc3s2)CC1 (stereo not drawn) [Example 304, N-tert-butoxycarbonyl-N′-(2-{3-[(benzothiazol-2-yl)(1-methylpiperidin-4-yloxy)methyl]phenylsulfanyl}ethyl)guanidine] | < 30 nM | 110 °C |
| CN1CCC(OC(c2cccc(C#CCCNC(=N)NC(=O)OC(C)(C)C)c2)c2nc3ccccc3s2)CC1 (stereo not drawn) [Example 399, N-tert-butoxycarbonyl-N′-(4-{3-[(benzothiazol-2-yl)(1-methylpiperidin-4-yloxy)methyl]phenyl}but-3-ynyl)guanidine] | < 300 nM | 120 °C |
| CC(C)CCOc1cccc(C(NC2CCN(C)CC2)c2nc3ccccc3[nH]2)c1 (stereo not drawn) [Example 68, {(1H-benzimidazol-2-yl)[3-(3-methylbutoxy)phenyl]methyl}(1-methylpiperidin-4-yl)amine] | < 300 nM | 70 °C |
